Legend:
Test in all cases: inhibition of NH3-dependent nitrite production by intact cells
Assay type in all cases: cell-based
[1] = tested on: T1, pMMO from Methylococcus capsulatus (Bath); settings: 20 mM NH4+, 20 mM formate as reductant, 10 mM PIPES pH 7, 37°C, 30 min preincubation
T1 construct: gene pmoB; sMMO excluded by naphthalene assay

[2] = molecular target: T2, AMO from "Ca. Nitrosotalea sinensis" Nd2 (Nitrosotalea sinensis, UniProt A0A2H1EFS5+A0A2H1EG39+A0A2H1EG64)
T2 construct: gene amoA; native membrane enzyme complex in intact cells (not purified)
T2 sequence (A0A2H1EG64 24-239 limits assumed): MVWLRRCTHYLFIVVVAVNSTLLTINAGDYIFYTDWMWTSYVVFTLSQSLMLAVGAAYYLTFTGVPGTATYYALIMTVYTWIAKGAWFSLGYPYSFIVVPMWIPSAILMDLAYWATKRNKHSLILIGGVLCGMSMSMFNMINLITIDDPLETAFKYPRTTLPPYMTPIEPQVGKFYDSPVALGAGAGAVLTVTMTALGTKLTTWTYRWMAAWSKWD
T2 sequence (A0A2H1EFS5 1-188): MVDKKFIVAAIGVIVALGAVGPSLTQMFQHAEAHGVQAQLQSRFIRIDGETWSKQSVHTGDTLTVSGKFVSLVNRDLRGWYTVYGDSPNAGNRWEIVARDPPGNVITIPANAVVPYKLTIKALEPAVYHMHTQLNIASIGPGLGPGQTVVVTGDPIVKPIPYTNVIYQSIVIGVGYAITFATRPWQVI
T2 sequence (A0A2H1EG39 1-187): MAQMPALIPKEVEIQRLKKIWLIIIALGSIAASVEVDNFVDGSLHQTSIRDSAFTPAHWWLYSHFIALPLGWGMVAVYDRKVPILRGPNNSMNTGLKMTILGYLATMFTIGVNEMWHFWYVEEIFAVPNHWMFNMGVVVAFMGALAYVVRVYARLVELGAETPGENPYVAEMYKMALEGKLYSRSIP
Source text: inhibition of NH3-dependent nitrite production by intact cells on AMO from "Ca.

[3] = molecular target: T3, AMO from Nitrosomonas europaea (Nitrosomonas europaea, UniProt Q04507+Q04508+Q82T63)
T3 construct: gene amoA1; native membrane enzyme complex in intact cells (not purified); genome carries duplicate amo operons
T3 sequence (Q04507 2-276): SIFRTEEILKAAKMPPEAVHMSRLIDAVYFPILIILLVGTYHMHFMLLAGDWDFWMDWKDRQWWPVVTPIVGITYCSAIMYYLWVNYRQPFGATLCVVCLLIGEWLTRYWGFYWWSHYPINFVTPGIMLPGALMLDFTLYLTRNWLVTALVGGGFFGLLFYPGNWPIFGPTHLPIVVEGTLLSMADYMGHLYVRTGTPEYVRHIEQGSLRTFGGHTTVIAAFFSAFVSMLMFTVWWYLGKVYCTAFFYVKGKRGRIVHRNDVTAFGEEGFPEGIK
T3 sequence (Q04508 26-420): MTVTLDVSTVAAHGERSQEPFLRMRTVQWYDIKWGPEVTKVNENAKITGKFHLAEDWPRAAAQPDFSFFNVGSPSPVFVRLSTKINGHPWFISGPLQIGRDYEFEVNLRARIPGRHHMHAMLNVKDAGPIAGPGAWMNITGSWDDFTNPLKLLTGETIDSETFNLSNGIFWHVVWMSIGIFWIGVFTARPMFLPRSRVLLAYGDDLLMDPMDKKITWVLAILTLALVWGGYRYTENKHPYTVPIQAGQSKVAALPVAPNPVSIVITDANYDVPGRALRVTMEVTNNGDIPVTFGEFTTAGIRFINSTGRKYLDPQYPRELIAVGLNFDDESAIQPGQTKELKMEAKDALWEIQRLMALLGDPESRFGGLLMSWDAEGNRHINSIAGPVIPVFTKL
T3 sequence (Q82T63 1-271): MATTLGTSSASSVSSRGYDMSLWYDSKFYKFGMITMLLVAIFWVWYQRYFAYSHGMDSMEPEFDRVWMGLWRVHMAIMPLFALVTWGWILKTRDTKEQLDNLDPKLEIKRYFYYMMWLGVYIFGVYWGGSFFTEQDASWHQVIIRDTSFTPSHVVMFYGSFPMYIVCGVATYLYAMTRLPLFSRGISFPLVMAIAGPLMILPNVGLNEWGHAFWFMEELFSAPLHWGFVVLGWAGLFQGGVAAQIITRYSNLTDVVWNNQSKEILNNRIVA

[4] = molecular target: T4, AMO from "Ca. Nitrosocosmicus franklandus" C13 (Candidatus Nitrosocosmicus franklandianus, UniProt A0A484I8C2+A0A484I9U7+A0A484IBG0)
T4 construct: gene amoA; native membrane enzyme complex in intact cells (not purified); copper-dependent multimeric
T4 sequence (A0A484I9U7 1-216): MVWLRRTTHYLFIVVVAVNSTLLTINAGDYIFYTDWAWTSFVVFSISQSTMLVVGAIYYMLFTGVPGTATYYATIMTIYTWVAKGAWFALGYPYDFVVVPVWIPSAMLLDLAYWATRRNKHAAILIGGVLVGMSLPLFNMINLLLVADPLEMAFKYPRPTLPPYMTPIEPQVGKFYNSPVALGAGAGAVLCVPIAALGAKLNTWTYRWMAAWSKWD
T4 sequence (A0A484I8C2 1-192): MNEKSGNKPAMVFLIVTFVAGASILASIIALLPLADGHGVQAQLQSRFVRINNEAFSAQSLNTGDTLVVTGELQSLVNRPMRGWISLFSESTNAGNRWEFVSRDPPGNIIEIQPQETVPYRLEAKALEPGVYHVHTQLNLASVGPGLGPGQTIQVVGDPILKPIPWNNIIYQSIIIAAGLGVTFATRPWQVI
T4 sequence (A0A484IBG0 1-187): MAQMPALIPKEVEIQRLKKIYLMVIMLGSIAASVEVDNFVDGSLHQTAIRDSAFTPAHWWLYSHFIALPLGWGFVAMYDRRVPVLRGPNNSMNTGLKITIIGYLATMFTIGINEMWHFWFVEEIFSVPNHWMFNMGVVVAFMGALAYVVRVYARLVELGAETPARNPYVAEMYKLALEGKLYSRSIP
Source text: inhibition of NH3-dependent nitrite production by intact cells on AMO from "Ca. Nitrosocosmicus franklandus" C13 | partial inhibition of NH3 oxidation by “Ca.

[5] = molecular target: T3, AMO from Nitrosomonas europaea; settings: 1 mM NH4+, 50 mM sodium phosphate pH 7.7, 2 mM MgCl2, 30°C, 30 min preincubation

SMILES | % inhibition at 10 μM [1] | % inhibition at 10 μM [5] | also measured
C#CCCC [C5, 1-pentyne] | > 20% | – | inhibition at 10 µM [2]: 70 ± 1%; inhibition at 10 µM [3]: 98 ± 1%; inhibition at 10 µM [4]: 14 ± 1%
C#CCCCC [C6, 1-hexyne] | ~ 10% | AMO activity was completely inhibited by C6 to C8 1-alkynes | –
C#CCCCCC [C7, 1-heptyne] | ~ 10% | AMO activity was completely inhibited by C6 to C8 1-alkynes | –
C#CCCCCCC [C8, 1-octyne] | – | AMO activity was completely inhibited by C6 to C8 1-alkynes | –
C#Cc1ccccc1 [PA, phenylacetylene] | – | – | inhibition at 0.5 µM ([3]; read-out: % inhibition at 0.5 μM): 52.5 ± 1.7%; inhibition at 5 µM ([4]; read-out: % inhibition at 5 μM): 55.4 ± 1.4%
